Experiments:
[1] = flow time (rate of flow) over 10 cm on a plane tilted at 45°; format: physicochemical; conditions: 0.5 ml, plate tilted 45°
Experimental: (§1) Three types of tests were performed: flow measurement on a biological membrane, the test of immersion in artificial saliva and the salting-out test. The rate of flow is the time it takes a given volume of liquid to travel 10 centimetres across a plane tilted at 45°. The saliva immersion test aims to highlight the contact time of the product with the biological membrane when it is subjected to the effect of saliva. Finally, the salting-out test aims to highlight the time it takes the product to salt out a tracer when it is subject to permanent “leaching” by the saliva. These three tests are described in full in the scientific literature and are reference tests for measuring the time a solution remains at its site of action in experimental conditions approximating the physiological conditions of the pharyngeal mucosa.
The composition (bioadhesive preparation) was examined under experimental conditions to verify its bioadhesive properties and compare them to a non-bioadhesive reference substance (distilled water) and a liposome-based commercial preparation (liposome preparation). The measurements carried out included flow time on a biological membrane and immersion in artificial saliva.
The rate of flow is the time it takes for a given volume of liquid to travel 10 cm over a plane tilted at 45°. This test was performed on 3 levels: • on a 20 cm^2 stainless-steel plate, non-biological membrane; • on a 20 cm^2 stainless-steel plate covered with a cellulose membrane, biological membrane; • on a 20 cm^2 stainless-steel plate covered in a cellulose membrane impregnated with a 5% mucin solution.
For this study, 0.5 ml was deposited 0.5 cm from the top edge of the plate, the deposit being made in horizontal position. The chronometer starting line is located 5 cm from the top edge of the plate when the liquid crosses it after tilting the plate to 45°. In the same way, the chronometer stopping line is located 5 cm from the bottom edge of the plate when the liquid crosses it.

[2] = artificial saliva immersion test; format: physicochemical; conditions: membrane covered in mucin, submerged vertically in 2 litres of artificial saliva
Experimental: as §1
The aim of the artificial saliva immersion test is to show the contact time of the product with the biological membrane when subjected to the effect of saliva. As before, the product is deposited on the surface of a biological membrane covered in mucin. After flowing over a distance of 10 cm, the plate/biological membrane/product assembly is submerged vertically in a container with 2 litres of artificial saliva. The time the product remains on the surface of the membrane is determined using a chronometer.

flow time, Stainless-steel support ([1]; 20 cm^2 stainless-steel plate, non-biological): <1″ | flow time, Stainless-steel + membrane + mucin ([1]; cellulose membrane impregnated with 5% mucin solution): <1″ | flow time, Stainless-steel + membrane ([1]; stainless-steel plate covered with cellulose membrane): <1″ | time the product remains on the surface of the membrane [2]: <1″
SMILES: O [Distilled water]

Source: patent US20080069913A1, “Anti-Snoring Composition” (PERSEE MEDICA,, priority 2004, published 2008)
